Measured values reported in US20110319392A1, “Thiazole Sulfonamide And Oxazole Sulfonamide Kinase Inhibitors” (priority 2009, published 2011).
pIC50: −log10 of the molar value. Structures can show the parent of a compound that is named as a salt.

Tests used:
BT474 tumor cells = assay: Cell growth inhibition assay (CellTiter-Glo), BT474; assay type: cell-based, Human; settings: 3 days incubation
Method: (§1) Human breast tumor cells (BT474) were cultured in RPMI (Mediatech […]), containing 10% FBS (JRH Biosciences 12176) and 1% penicillin-streptomycin (Invitrogen 15140). Human head and neck tumor cells (HN5) were cultured in high glucose DMEM (Mediatech 50-013-PB) containing 10% FBS and 1% penicillin-streptomycin. Human colon tumor cells (Colo205) were cultured in RPMI (Mediatech 50-020-PB) containing 10% FBS and 1% penicillin-streptomycin. Human melanoma cancer cells (SK-MEL-28) were cultured in EMEM with nonessential amino acids (Mediatech 50-011-PB) containing 10% FBS, 1% sodium pyruvate (JT Baker 3354-04), and 1% penicillin-streptomycin. Human melanoma cancer cells (A375P F11s) were cultured in RPMI (Mediatech 50-020-PB) containing 10% FBS, 1% sodium pyruvate, and 1% penicillin-streptomycin. Human colon cancer cells (HT-29) were cultured in high glucose DMEM (Mediatech 50-013-PB) containing 10% FBS and 1% penicillin-streptomycin. Human melanoma cancer cells (SK-MEL-3) were cultured in McCoy's 5A (50-025-PB) containing 15% FBS, and 1% penicillin-streptomycin. All cell lines were maintained at 37° C. in a humidified 5% CO2, 95% air incubator. Cells were harvested using trypsin/EDTA (Invitrogen 25200), counted using a haemocytometer, and plated. For 96-well assays (using white full-area NUNC plates cat. #136102), cells were plated in 105 μL at the following densities (cells/well): HNS, 500; Colo 205, 500; SK-MEL-28, 500; A375P F11s, 500; HT-29, 500; SK-MEL-3, 500; and BT474, 3000. For 384-well assays (white full-area NUNC plates, cat. #781080), cells were plated in 48 μL at the following densities (cells/well): HNS, 500; Colo205, 500; SK-MEL-28, 500; A375P F11s, 500; HT-29, 500; SK-MEL-3, 500; and BT474, 2000.
(§2) The next day, compounds were diluted as follow: For 96-well assays, 13.5 μL of compound in DMSO were diluted using nine (9) serial 1:3 dilutions of 4.5 μL in 9 of DMSO. Medium (270 μL/well of RPMI with 10% FBS and 1% penicillin-streptomycin) was added to the plates. Aliquots (7 μL) were added to cells in the final assay giving a final DMSO concentration of 0.2%. For 384-well assays, 15 μL of compound in DMSO were diluted using nine (9) serial 1:3 dilutions of 5 μL in 10 μL of DMSO, followed by a further dilution of 5 μL of compound with 95 μL of medium, of which 2 μL were added to cells in the final assay giving a final DMSO concentration of 0.2%. Cells were incubated at 37° C., 5% CO2 for 3 days.
(§3) Total ATP was measured (as a surrogate estimate of cell number) using CellTiter-Glo® reagent (Promega G7571). Briefly, plates were removed from the incubator and allowed to equilibrate to room temperature for 30 minutes. CellTiter-Glo® (25 μL or 55 μL for 384-well or 96-well assays, respectively) reagent was added to each well and plates were shaken on an orbital plate shaker for 2 minutes. Plates were incubated without shaking for a further 30 minutes and read on an LJL Analyst GT reader in luminometer mode with an integration time of 0.5 seconds per well. Percent inhibition of cell growth was calculated relative to DMSO vehicle-treated control wells. Concentration of compound required to give 50% inhibition of vehicle-treated control cell growth (IC50) was interpolated using a 4-parameter fit for determining IC50 using the following equation: Y=A +((B−A)/(1+((C/X)̂D))) where […].

EGFR = target: T1, EGFR (Homo sapiens, UniProt P00533); assay: EGFR substrate phosphorylation assay (HTRF); assay type: biochemical
T1 construct: made in house; host or cells: baculovirus expression system
T1 sequence (P00533 25-1210): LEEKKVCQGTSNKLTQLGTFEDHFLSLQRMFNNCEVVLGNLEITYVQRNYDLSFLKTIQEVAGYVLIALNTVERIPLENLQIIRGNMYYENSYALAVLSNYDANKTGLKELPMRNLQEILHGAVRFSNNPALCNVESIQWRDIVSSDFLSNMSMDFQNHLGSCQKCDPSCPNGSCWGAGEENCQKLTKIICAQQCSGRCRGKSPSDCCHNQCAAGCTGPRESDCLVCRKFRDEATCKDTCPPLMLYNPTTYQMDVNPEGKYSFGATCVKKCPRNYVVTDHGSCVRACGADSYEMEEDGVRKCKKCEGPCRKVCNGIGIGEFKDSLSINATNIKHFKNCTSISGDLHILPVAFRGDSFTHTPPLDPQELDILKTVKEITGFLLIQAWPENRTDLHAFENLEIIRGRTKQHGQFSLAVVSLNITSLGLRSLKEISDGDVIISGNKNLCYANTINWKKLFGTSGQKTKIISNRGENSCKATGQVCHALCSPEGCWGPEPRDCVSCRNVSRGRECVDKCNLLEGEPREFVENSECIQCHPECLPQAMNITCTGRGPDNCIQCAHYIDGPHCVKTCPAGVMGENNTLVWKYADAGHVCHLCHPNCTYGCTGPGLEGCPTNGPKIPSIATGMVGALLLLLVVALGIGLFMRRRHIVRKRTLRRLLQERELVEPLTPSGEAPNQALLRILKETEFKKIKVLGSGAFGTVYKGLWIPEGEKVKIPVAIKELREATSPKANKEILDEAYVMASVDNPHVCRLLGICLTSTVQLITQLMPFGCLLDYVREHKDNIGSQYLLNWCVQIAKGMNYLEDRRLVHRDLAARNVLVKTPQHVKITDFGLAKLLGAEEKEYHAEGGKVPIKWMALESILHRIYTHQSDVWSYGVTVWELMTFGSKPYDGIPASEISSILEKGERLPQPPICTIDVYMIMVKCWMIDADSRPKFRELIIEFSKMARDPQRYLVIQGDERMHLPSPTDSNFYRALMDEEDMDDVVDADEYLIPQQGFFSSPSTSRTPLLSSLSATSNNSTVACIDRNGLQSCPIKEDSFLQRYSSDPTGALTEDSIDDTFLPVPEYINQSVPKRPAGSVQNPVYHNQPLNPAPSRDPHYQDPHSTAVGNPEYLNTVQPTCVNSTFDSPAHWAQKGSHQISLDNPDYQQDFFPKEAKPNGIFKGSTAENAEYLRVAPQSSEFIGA
In short: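 Baculovirus-expressed EGFR (0.8 nM) or ErbB2 (10 nM) in enzyme mix, preincubated 1 h at 20 °C with compound (0.00027–47.6 μM final), then 90 min at 20 °C with substrate mix of 20 μM ATP, 0.8 uM biotinylated Peptide C, MnCl2, MOPS pH 7.5. Phosphotyrosine by HTRF; pIC50 reported.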

Colo205 tumor cells = assay: Cell growth inhibition assay (CellTiter-Glo), Colo205; assay type: cell-based, Human; settings: Homo sapiens, COLO 205, 72 h; 3 days incubation
In short: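 Readout was CellTiter-Glo luminescence (total ATP, surrogate for cell number) after 3-day exposure at 37° C, 5% CO2 to 1:3 serial compound dilutions in 0.2% final DMSO. Seeding was 500 cells/well; IC50 derived by 4-parameter fit relative to vehicle-treated wells.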

SK-MEL-3 tumor cells = assay: Cell growth inhibition assay (CellTiter-Glo), SK-MEL-3; assay type: cell-based, Human; settings: for pIC50: Homo sapiens, SK-MEL3
Method: as §1, §2, §3

Row | Compound | pIC50 (BT474 tumor cells) | pIC50 (EGFR) | pIC50 (Colo205 tumor cells) | pIC50 (BT474 tumor cells; Homo sapiens, BT-474, 72 h) | pIC50 (SK-MEL-3 tumor cells) | Activity in SK-MEL-3 Tumor Cells (SK-MEL-3 tumor cells)
1 | COCCN1CCN(c2ccc(Nc3nccc(-c4sc(C(C)C)nc4-c4cccc(NS(=O)(=O)c5ccccc5)c4)n3)cn2)CC1 [Example 6, N-[3-(2-(1-Methylethyl)-5-{2-[(6-{4-[2-(methyloxy)ethyl]-1-piperazinyl}-3-pyridinyl)amino]-4-pyrimidinyl}-1,3-thiazol-4-yl)phenyl]benzenesulfonamide] |  | < 6.00 | > 7.00 | < 6.00 | > 7.00 | 
2 | CC(C)c1nc(-c2cccc(NS(=O)(=O)c3ccccc3)c2)c(-c2ccnc(Nc3ccc(N4CCOCC4)nc3)n2)s1 [Example 8, N-{3-[2-(1-Methylethyl)-5-(2-{[6-(4-morpholinyl)-3-pyridinyl]amino}-4-pyrimidinyl)-1,3-thiazol-4-yl]phenyl}benzenesulfonamide hydrochloride] |  | 6.00 to 7.00 | > 7.00 | < 6.00 | > 7.00 | 
3 | CC(=O)N1CCN(c2ccc(Nc3nccc(-c4sc(C(C)C)nc4-c4cccc(NS(=O)(=O)c5ccc(F)cc5)c4)n3)cn2)CC1 [Example 10, N-{3-[5-(2-{[6-(4-Acetyl-1-piperazinyl)-3-pyridinyl]amino}-4-pyrimidinyl)-2-(1-methylethyl)-1,3-thiazol-4-yl]phenyl}-4-fluorobenzenesulfonamide] |  | < 6.00 | > 7.00 | < 6.00 | 6.00 to 7.00 | 
4 | CC(=O)N1CCN(c2ccc(Nc3nccc(-c4sc(C(C)C)nc4-c4cccc(NS(=O)(=O)c5ccccc5F)c4)n3)cn2)CC1 [Example 12, N-{3-[5-(2-{[6-(4-Acetyl-1-piperazinyl)-3-pyridinyl]amino}-4-pyrimidinyl)-2-(1-methylethyl)-1,3-thiazol-4-yl]phenyl}-2-fluorobenzenesulfonamide] |  | > 7.00 | > 7.00 | < 6.00 | > 7.00 | 
5 | CC(C)c1nc(-c2cccc(NS(=O)(=O)c3c(F)cccc3F)c2)c(-c2ccnc(Nc3ccc(N4CCN5CCOC[C@H]5C4)nc3)n2)s1 [Example 15] |  | 6.00 to 7.00 | > 7.00 | < 6.00 | > 7.00 | 
6 | CC(C)c1nc(-c2cccc(NS(=O)(=O)c3c(F)cccc3F)c2)c(-c2ccnc(Nc3ccc(N4CCOCC4)nc3)n2)s1 [Example 17, 2,6-Difluoro-N-{3-[2-(1-methylethyl)-5-(2-{[6-(4-morpholinyl)-3-pyridinyl]amino}-4-pyrimidinyl)-1,3-thiazol-4-yl]phenyl}benzenesulfonamide] |  | 6.00 to 7.00 | > 7.00 | < 6.00 | > 7.00 | 
7 | COc1cc(N2CCN(CCS(C)(=O)=O)CC2)c(C)cc1Nc1nccc(-c2sc(C(C)C)nc2-c2cccc(NS(=O)(=O)c3c(F)cccc3F)c2)n1 [Example 19] |  | > 7.00 | > 7.00 | < 6.00 | 6.00 to 7.00 | 
8 | CS(=O)(=O)CCN1CCN(c2ccc(Nc3nccc(-c4oc(N5CCCC5)nc4-c4ccc(F)c(NS(=O)(=O)c5c(F)cccc5F)c4)n3)cc2F)CC1 [Example 119] |  | < 6.00 | 6.00 to 7.00 | < 6.00 |  | 

Continued, in another order:

Row | pIC50 (BT474 tumor cells) | pIC50 (EGFR) | pIC50 (Colo205 tumor cells) | pIC50 (BT474 tumor cells; Homo sapiens, BT-474, 72 h) | pIC50 (SK-MEL-3 tumor cells) | Compound | Activity in SK-MEL-3 Tumor Cells (SK-MEL-3 tumor cells)
9 | 6.00 to 7.00 | > 7.00 | 6.00 to 7.00 |  |  | CCNc1nc(-c2cccc(NS(=O)(=O)c3ccccc3)c2)c(-c2ccnc(Nc3ccc(OCCN4CCCC4)c(F)c3)n2)s1 [Example 1, N-(3-(2-(Ethylamino)-5-{2-[(3-fluoro-4-[[2-(1-pyrrolidinyl)ethyl]oxy}phenyl)amino]-4-pyrimidinyl}-1,3-thiazol-4-yl)phenyl]benzenesulfonamide] | ++ (activity of between 100 nM and 1 μM in SK-MEL-3 tumor cells)
10 |  | > 7.00 | > 7.00 | < 6.00 | > 7.00 | COc1ccc(Nc2nccc(-c3sc(C(C)C)nc3-c3cccc(NS(=O)(=O)c4ccccc4)c3)n2)cc1N1CCN(CCC#N)CC1 [Example 9, N-{3-[5-(2-{[3-[4-(2-Cyanoethyl)-1-piperazinyl]-4-(methyloxy)phenyl]amino}-4-pyrimidinyl)-2-(1-methylethyl)-1,3-thiazol-4-yl]phenyl}benzenesulfonamide] | 
11 |  | 6.00 to 7.00 | > 7.00 | < 6.00 | > 7.00 | CC(=O)N1CCN(c2ccc(Nc3nccc(-c4sc(C(C)C)nc4-c4cccc(NS(=O)(=O)c5cccc(F)c5)c4)n3)cn2)CC1 [Example 11, N-{3-[5-(2-{[6-(4-Acetyl-1-piperazinyl)-3-pyridinyl]amino}-4-pyrimidinyl)-2-(1-methylethyl)-1,3-thiazol-4-yl]phenyl}-3-fluorobenzenesulfonamide] | 
12 |  | 6.00 to 7.00 | > 7.00 | < 6.00 | > 7.00 | CC(C)c1nc(-c2cccc(NS(=O)(=O)c3c(F)cccc3F)c2)c(-c2ccnc(Nc3ccc(OC4CCN(CCS(C)(=O)=O)CC4)c(F)c3)n2)s1 [Example 13, 2,6-Difluoro-N-{3-[5-(2-{[3-fluoro-4-({1-[2-(methylsulfonyl)ethyl]-4-piperidinyl}oxy)phenyl]amino}-4-pyrimidinyl)-2-(1-methylethyl)-1,3-thiazol-4-yl]phenyl}benzenesulfonamide hydrochloride] | 
13 |  | 6.00 to 7.00 | > 7.00 | < 6.00 | > 7.00 | CC(C)c1nc(-c2cccc(NS(=O)(=O)c3c(F)cccc3F)c2)c(-c2ccnc(Nc3ccc(N4CCOCC4)c(C(=O)O)c3)n2)s1 [Example 14, 5-({4-[4-(3-{[(2,6-Difluorophenyl)sulfonyl]amino}phenyl)-2-(1-methylethyl)-1,3-thiazol-5-yl]-2-pyrimidinyl}amino)-2-(4-morpholinyl)benzoic acid] | 
14 |  | 6.00 to 7.00 | > 7.00 | < 6.00 | > 7.00 | CC(C)c1nc(-c2cccc(NS(=O)(=O)c3c(F)cccc3F)c2)c(-c2ccnc(Nc3ccc(N4CCN(CCS(C)(=O)=O)CC4)c(F)c3)n2)s1 [Example 16, 2,6-Difluoro-N-{3-[5-{2-[(3-fluoro-4-{4-[2-(methylsulfonyl)ethyl]-1-piperazinyl}phenyl)amino]-4-pyrimidinyl}-2-(1-methylethyl)-1,3-thiazol-4-yl]ohenyl}benzenesulfonamide hydrochloride] | 
15 |  | > 7.00 | > 7.00 | < 6.00 | > 7.00 | COc1ccc(Nc2nccc(-c3sc(C(C)C)nc3-c3cccc(NS(=O)(=O)c4c(F)cccc4F)c3)n2)cc1N(C)C [Example 18, N-{3-[5-(2-{[3-(Dimethylamino)-4-(methyloxy)phenyl]amino}-4-pyrimidinyl)-2-(1-methylethyl)-1,3-thiazol-4-yl]phenyl}-2,6-difluorobenzenesulfonamide trifluoroacetate] | 
